Source: publication PMC8777785, “Antimicrobial Activity of Snake β-Defensins and Derived Peptides” (Toxins, 2021)
In brackets after ≈: the same amount, converted by molar mass. Residues, ends and D or L forms follow the SMILES beside them.

Tests used:
Citrobacter freundii = assay: Microbroth dilution assay, MIC; format: cell-based; settings: short derived peptides, 2.75 to 700 µg/mL, overnight 37 °C, read at 600 nm, three independent experiments
Method: (§1) The β-defensins were tested using a microbroth dilution assay. It consists of incubating the bacteria (4.105 colony-forming unit—CFU/mL) and the peptide (from 1 to 512 µg/mL) in liquid broth. After the incubation at 37 °C during the night, the bacterial growth was detected by spectrophotometry at 600 nm. If the measure is similar to the broth, it […]. […] The β-defensins were tested against B. jararaca oral flora because it would be of biological and medical interest. In addition, we tested on E. coli ATCC 25922 and M. luteus that are common Gram-negative and Gram-positive bacteria used in antibacterial tests.
(§2) The antibacterial activity of the alkylated peptides was tested against Gram-negative (G−) bacteria (Klebsiella pneumonia, Serratia marcescens, Morganella morganii, Providencia rettgeri, Citrobacter freundii, Escherichia coli ATCC 25922 and Gram-positive (G+) bacteria (Micrococcus luteus A270 and Staphylococcus aureus) using microbroth assay. In a 96-well plate, 90 µL of 10% tryptone soy broth (TSB) with 4 × 10^5 colony-forming unit (CFU/mL) were mixed with serial twofold dilutions of β-defensins duplicate in concentrations from 512 to 1 µg/mL. The derived peptides coded as PS1, PS2, PS3, PS5, and PS6 (Table 1) were tested against these bacteria in serial twofold dilutions with concentrations bellow 700 µg/mL. After overnight incubation at 37 °C, the turbidity of the bacterial culture was read at 600 nm (Epoch microplate reader, Biotek). The minimal inhibitory concentration (MIC) of each peptide was determined as the lowest concentration that results in no visible bacterial growth. The MIC resulted from three independent experiments. The bacteria K. pneumonia, S. marcescens, M. morganii, P. rettgeri, C. freundii, M. luteus A270 and S. aureus were isolated from Bothrops jararaca buccal flora and kindly provided by Dr. Márcia R. Franzolin (Laboratory of Bacteriology—Instituto Butantan). M. luteus was kindly provided by Dr. Pedro I. da Silva Jr. (Laboratory of Applied Toxinology—Instituto Butantan).

[1] = tested on: Escherichia coli ATCC 25922; assay: Microbroth dilution assay, MIC; format: cell-based; settings: short derived peptides, 2.75 to 700 µg/mL, overnight 37 °C, read at 600 nm, three independent experiments
Method: as §1, §2

Micrococcus luteus A270 = assay: Microbroth dilution assay, MIC; format: cell-based; settings: short derived peptides, 2.75 to 700 µg/mL, overnight 37 °C, read at 600 nm, three independent experiments
Method: as §1, §2

Staphylococcus aureus = assay: Microbroth dilution assay, MIC; format: cell-based; settings: short derived peptides, 2.75 to 700 µg/mL, overnight 37 °C, read at 600 nm, three independent experiments
Method: as §1, §2

[2] = tested on: Aspergillus fumigatus (IOC 4526); assay: Resazurin microtiter assay plate, antifungal MIC90; format: cell-based; settings: resazurin colour change, RPMI 1640, 1 to 250 μM, 28 °C, 24–72 h; three independent experiments
Method: (§3) The derived peptides were also tested against fungi species using the classical resazurin microtiter assay plate method. It is based on the color change of the rezazurin dye that in blue indicates the absence of growth in at least 90%, and pink refers to microorganism growth. MIC is determined as the minimal concentration of the sample that can prevent the color change from blue to pink and refers to the inhibition of 90% of microorganisms.
(§4) The antifungal activity was evaluated by the microdilution assay as previously described on clinical strains of Candida albicans (IOC 4525), Cryptococcus neoformans (IOC 4528), Trichophyton rubrum (IOC 4527) and Aspergillus fumigatus (IOC 4526). The fungi were cultivated in potato dextrose agar at 28 °C according to the Clinical and Laboratory Standards Institute recommendations. Fungal suspensions were prepared in RPMI 1640 culture media; the CFU/mL was adjusted to 0.5–2.5 × 10^3 for yeasts (C. albicans and C. neoformans) and 0.4–5 × 10^4 CFU/mL for filamentous fungi (T. rubrum e A. fumigatus), by comparison with a standard curve previously stablished in our laboratory.
(§5) The peptides PS1, PS2, PS, PS3, PS4, PS5 and PS6 at 1 mM in acetic acid at 0.01% were diluted in RPMI 1640 culture media at concentrations ranging from 1 to 250 μM. Amphotericin B (AMB) at concentrations below 15 μg/mL (16 μM) and acetic acid from 0.0002 to 0.0025% was used as control.
(§6) The fungi suspensions were added to a 96 well plate (100 µL/well) and the samples (100 µL) in different concentrations were added to each well. The plate was incubated at 28 °C for 24–72 h, and 24 h before the end of the assay 25 µL of the rezazurin dye at 0.02% were added to each well. The minimal inhibitory concentration (MIC90) was defined as the lowest concentration that prevents the rezazurin’s change in color from blue to pink due to the inhibition of at least 90% of the microorganism’s growth. The assays were performed in three independent experiments.

[3] = tested on: Cryptococcus neoformans (IOC 4528); assay: Resazurin microtiter assay plate, antifungal MIC90; format: cell-based; settings: resazurin colour change, RPMI 1640, 1 to 250 μM, 28 °C, 24–72 h; three independent experiments
Method: as §3, §4, §5, §6

[4] = tested on: Trichophyton rubrum (IOC 4527); assay: Resazurin microtiter assay plate, antifungal MIC90; format: cell-based; settings: resazurin colour change, RPMI 1640, 1 to 250 μM, 28 °C, 24–72 h; three independent experiments
Method: as §3, §4, §5, §6

[5] = tested on: Candida albicans (IOC 4525); assay: Resazurin microtiter assay plate, antifungal MIC90; format: cell-based; settings: resazurin colour change, RPMI 1640, 1 to 250 μM, 28 °C, 24–72 h; three independent experiments
Method: as §3, §4, §5, §6

Klebsiella pneumonia = assay: Microbroth dilution assay, MIC; format: cell-based, Klebsiella pneumoniae; settings: short derived peptides, 2.75 to 700 µg/mL, overnight 37 °C, read at 600 nm, three independent experiments
Method: as §1, §2

Structure (SMILES) | MIC, C. freundii (Citrobacter freundii) [µM] | MIC, E. coli [1] [µM] | MIC, M. luteus (Micrococcus luteus A270) [µM] | MIC, S. aureus (Staphylococcus aureus) [µM] | MIC90, Aspergillus fumigatus [2] [µM] | MIC90, Cryptococcus neoformans [3] [µM] | MIC90, Trichophyton rubrum [4] [µM] | MIC90, Candida albicans [5] [µM] | MIC, K. pneumoniae (Klebsiella pneumonia) [µM]
CSCC[C@H](NC(=O)[C@H](CCC(N)=O)NC(=O)[C@@H](N)CO)C(=O)NCC(=O)N[C@@H](CCC(N)=O)C(=O)N[C@@H](CCSC)C(=O)N[C@@H](CO)C(=O)N[C@@H](CO)C(=O)N[C@@H](CCCNC(=N)N)C(=O)N[C@@H](CCCNC(=N)N)C(=O)N[C@@H](CCCNC(=N)N)C(=O)N[C@@H](Cc1ccccc1)C(=O)NCC(=O)N[C@@H](CCCCN)C(=O)O [PS4] (H-SQMGQMSSRRRFGK-OH) | >423 | >423 | 26.6 (≈ 44 µg/mL) | >423 | >250 | >250 | >250 | >250 | >423
N=C(N)NCCC[C@H](NC(=O)CNC(=O)[C@@H]1CCCN1C(=O)CNC(=O)[C@@H](N)CO)C(=O)N[C@@H](CCCNC(=N)N)C(=O)N[C@@H](CO)C(=O)N[C@@H](CO)C(=O)N[C@@H](CCCNC(=N)N)C(=O)N[C@@H](CCCNC(=N)N)C(=O)N[C@@H](CCCNC(=N)N)C(=O)N[C@@H](Cc1c[nH]c2ccccc12)C(=O)N[C@@H](CCCCN)C(=O)O [PS5] (H-SGPGRRSSRRRWK-OH) | 110 (≈ 174 µg/mL) | 55.2 (≈ 87.5 µg/mL) | 13.9 (≈ 22 µg/mL) | 27.7 (≈ 43.9 µg/mL) | >250 | >250 | >250 | >250 | 27.7 (≈ 43.9 µg/mL)
